Data published in patent US20150355163A1, “T-TYPE CALCIUM CHANNEL INHIBITORS FOR TREATMENT OF CANCER” (TAU THERAPEUTICS LLC, priority 2013, published 2015).
Entries after “also recorded” stand apart in the source; their conditions may differ. Like-named read-outs stand apart in the source and are kept apart here.

How the values were obtained:
T-type Ca^2+ channel [1] = tested on: T1, T-type Ca^2+ channel; test: Inhibition of T-type Ca^2+ channel activity in a cell with the membrane potential held (patch-clamp); type: cell-based; conditions: in words; for inhibition of T-type Ca^2+ channel activity: cell membrane potential about −90 mV
T1 construct: other: cell membrane potential about −90 mV, in words; other: in words; selectivity for the −90 mV state relative to −40 mV; other: cell membrane potential about −30 mV to −60 mV
From the text: This disclosure further provides methods of identifying compounds that inhibit T-type Ca^2+ channel activity in a cell when the cell membrane potential is about −90 mV. These methods include determining the ability of a compound to inhibit T-type Ca^2+ channel activity in a cell when the cell membrane potential is held at about −90 mV. The membrane potential can be held at about −90 mV by techniques known in the art, such as the patch-clamp technique. The ability of a compound to inhibit T-type Ca^2+ channel activity in a cell when the cell membrane potential is about −90 mV can be determined, for example, by determining the ability of the compound to prevent growth factor-stimulated calcium entry into the cell. Calcium entry into the cell can be determined by measuring increases in levels of intracellular calcium, such as by use of a calcium sensitive fluorescent dye.
This disclosure further provides methods of identifying compounds that inhibit T-type Ca^2+ channel activity in a cell when the cell membrane potential is about −90 mV. Such compounds can be identified by measuring inhibition of T-type Ca^2+ channel activity in a cell using standard electrophysiological methods such as patch clamp or by measuring the ability of a pharmaceutical agent to block calcium entry into a cell, such as a cancer cell, when that cell is stimulated by a mitogen, such as a growth factor. Such methods are disclosed, for example, in Densmore, et al., FEBS Lett. 312:161-164 (1992); Haverstick, et al., Mol. Biol. Cell 4:173-184 (1993); and Gomora et al., J. Pharmacol. Exp. Ther. 292:96-103 (2000), the contents of which are incorporated by reference. Calcium entry can be determined by methods such as intracellular entrapment of a Ca^2+ sensitive fluorescent dye.
In some embodiments, the cell membrane potential can be controlled using a patch-clamp technique. In some embodiments cell membrane potential can be controlled using any other technique described herein or known in the art.

cancer cells = test: Cancer cell proliferation; type: cell-based; conditions: in words
T-type Ca^2+ channel [2] = tested on: T1, T-type Ca^2+ channel; conditions: cited from earlier work; for potency for inhibition of the T-type calcium channel: in words; for IC50: read-out: IC50 for inhibiting T-type Ca^2+ channel activity
T-type Ca^2+ channel [3] = conditions: ratio; cited from earlier work
human glioblastoma = conditions: seven day course of mibefradil, then five day course of temozolomide; cited from earlier work
CYP 450 3A4 = CYP 450 3A4 (Homo sapiens, UniProt P08684); conditions: in words; cited from earlier work
[4] = used by almost a million patients; cited from earlier work

CYP 450 3A4, sequence (P08684 whole entry): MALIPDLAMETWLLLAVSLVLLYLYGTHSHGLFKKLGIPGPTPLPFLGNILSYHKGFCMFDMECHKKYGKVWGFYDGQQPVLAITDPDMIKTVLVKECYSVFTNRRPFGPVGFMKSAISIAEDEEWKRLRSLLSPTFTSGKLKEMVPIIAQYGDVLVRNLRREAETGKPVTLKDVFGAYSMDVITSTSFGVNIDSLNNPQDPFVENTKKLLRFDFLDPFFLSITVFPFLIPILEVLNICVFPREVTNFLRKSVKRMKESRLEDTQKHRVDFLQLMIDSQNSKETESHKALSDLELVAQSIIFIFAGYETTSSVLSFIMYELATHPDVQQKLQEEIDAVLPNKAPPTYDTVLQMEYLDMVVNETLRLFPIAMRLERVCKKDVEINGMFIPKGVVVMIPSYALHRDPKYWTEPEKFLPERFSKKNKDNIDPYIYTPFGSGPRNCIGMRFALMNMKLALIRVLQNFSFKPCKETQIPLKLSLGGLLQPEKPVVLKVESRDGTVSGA

In the case of `C[C@@H](NC(=O)Cc1ccc(C2CC2)cc1)c1ccc(OCC(F)(F)F)cn1` [TTA-A2], the “selectivity for the −90 mV state relative to −40 mV” value (T-type Ca^2+ channel [1]) is given as “decreased selectivity”, the anti-proliferative activity (cancer cells) is given as “without anti-proliferative activity; also recorded: little or no effect” and the “potency for inhibition of the T-type calcium channel” value (T-type Ca^2+ channel [2]) is given as “high potency”.

With `COCC(=O)O[C@]1(CCN(C)CCCc2nc3ccccc3[nH]2)CCc2cc(F)ccc2[C@@H]1C(C)C` [mibefradil] the “inhibition of T-type Ca^2+ channel activity” value (T-type Ca^2+ channel [1]) was “inhibit”, the “selectivity for the −90 mV state relative to −40 mV” value (T-type Ca^2+ channel [1]) was “preferentially blocks the −90 mV state” and the anti-proliferative activity (cancer cells) was “inhibit cancer cell proliferation”. For the same compound, the anti-proliferative activity (cancer cells; listed as Mibefradil) was “antiproliferative”, the “preference for blocking channels at about −30 mV to −60 mV over −90 mV” value (T-type Ca^2+ channel [3]) was 10 to 1 and the IC50 (T-type Ca^2+ channel [2]; cell membrane potential about −30 mV to −60 mV) was ≥ 100 nM. For the same compound, the IC50 (T-type Ca^2+ channel [2]; cell membrane potential of −80 mV to −90 mV) was ~1000 nM, the “effect on the cytotoxic effect of temozolomide” value (human glioblastoma) was “significantly increased; also recorded: restored the sensitivity to temozolomide” and the “inhibition of CYP 450 3A4” value (CYP 450 3A4) was “inhibition”. The tolerability [4] was “remarkably well tolerated”.

With `O=c1[nH]c2cc(Cl)ccc2n1C1CCN(CCCC(c2ccc(F)cc2)c2ccc(F)cc2)CC1` [chlopimozide] the anti-proliferative activity (cancer cells) was “anti-proliferative”.

In the case of `COc1ccc(CCN2CCC[C@H]2COC(c2ccccc2)c2ccc(Cl)cc2)cc1` (stereo partly drawn) [TH-1177], the “inhibition of T-type Ca^2+ channel activity” value (T-type Ca^2+ channel [1]) is reported as “inhibit”.

In the case of `CC(C)c1ccc(CC(=O)N[C@H](C)c2ccc(OCC(F)(F)F)cn2)cc1` [MK-8998], the “selectivity for the −90 mV state relative to −40 mV” value (T-type Ca^2+ channel [1]) is given as “decreased selectivity”, the anti-proliferative activity (cancer cells) is given as “without anti-proliferative activity; also recorded: little or no effect” and the “potency for inhibition of the T-type calcium channel” value (T-type Ca^2+ channel [2]) is given as “high potency”.
